# Experimental data taken from article PMC8697972, “New Auranofin Analogs with Antibacterial Properties against Burkholderia Clinical Isolates” (Antibiotics, 2021).
# Marks after values point to notes of the source that are not given here.
# Experiments:
# B. cenocepacia K56-2 [1] = assay type: cell-based, Burkholderia cenocepacia; settings: B. cenocepacia K56-2; CAMHB, 18 h, 37 °C
# B. lata BCC6 = assay type: cell-based, Burkholderia lata; settings: B. lata BCC6
# B. contaminans MF16 = assay type: cell-based, Burkholderia contaminans; settings: B. contaminans MF16
# [2] = system: B. contaminans FFH-2050MA; assay type: cell-based, Burkholderia contaminans; settings: B. contaminans FFH-2050MA
# B. dolosa CEP021 = assay type: cell-based, Burkholderia dolosa; settings: B. dolosa CEP021
# B. multivorans ATCC17616 = assay type: cell-based, Burkholderia multivorans; settings: B. multivorans ATCC17616
# B. cenocepacia 140485 = assay type: cell-based, Burkholderia cenocepacia; settings: B. cenocepacia 140485
# B. ubonensis LMG 20358 = assay type: cell-based, Burkholderia ubonensis; settings: B. ubonensis LMG 20358
# B. contaminans FFH-4004 = assay type: cell-based, Burkholderia contaminans; settings: B. contaminans FFH-4004
# [3] = system: B. mallei China 5 (NBL 4); assay type: cell-based, Burkholderia mallei
# [4] = system: B. mallei Ivan (NCTC 10230); assay type: cell-based, Burkholderia mallei
# [5] = system: B. mallei China 7 (NBL 7); assay type: cell-based, Burkholderia mallei
# B. pseudomallei 1710b = assay type: cell-based, Burkholderia pseudomallei
# B. pseudomallei MSHR465a = assay type: cell-based, Burkholderia pseudomallei
# [6] = system: B. pseudomallei HBPUB10134a; assay type: cell-based, Burkholderia pseudomallei
# B. mallei = assay type: cell-based, Burkholderia mallei; settings: range over B. mallei strains
# B. pseudomallei = assay type: cell-based, Burkholderia pseudomallei
# members of the Bcc = test: MIC, summary over Bcc panel; assay type: cell-based, Burkholderia cepacia complex; settings: text summary over Bcc panel (most of the MICs)
# Gram-negative bacteria = system: Gram-negative bacteria; parameters: method as in PMID 25831516; settings: cited from earlier work
# B. pseudomallei MSHR305 = assay type: cell-based, Burkholderia pseudomallei
# [7] = system: Stenotrophomonas maltophilia DH57; assay type: cell-based
# [8] = system: Stenotrophomonas maltophilia K279a; assay type: cell-based
# Escherichia coli 120955 [9] = assay type: cell-based
# [10] = system: Escherichia vulneris CEP511; assay type: cell-based
# [11] = system: Klebsiella pneumoniae 120310; assay type: cell-based
# [12] = system: Acinetobacter baumannii ATCC 17978; assay type: cell-based
# [13] = system: Staphylococcus aureus ATCC 27700; assay type: cell-based
# [14] = system: Staphylococcus aureus 107094; assay type: cell-based
# [15] = system: Achromobacter xylosoxidans ACH03; assay type: cell-based
# [16] = system: Burkholderia cenocepacia K56-2; test: MBC (minimum bactericidal concentration); assay type: cell-based; settings: MBC determined from exponential time kill curve
# [17] = system: Stenotrophomonas maltophilia K279a; test: MBC (minimum bactericidal concentration); assay type: cell-based
# [18] = system: B. cenocepacia K56-2 persister cells; test: Time kill of persister cells generated with ciprofloxacin; assay type: cell-based, Burkholderia cenocepacia
# B. cenocepacia K56-2 [19] = test: In vivo antibiotic activity in infected C. elegans; settings: C. elegans infected with B. cenocepacia K56-2, data not shown
# B. cenocepacia K56-2 [20] = test: In vivo antibiotic activity in infected G. mellonella; settings: G. mellonella infected with B. cenocepacia K56-2, data not shown
# B. cenocepacia K56-2 [21] = test: MIC in 50% human serum; assay type: cell-based, Burkholderia cenocepacia
# human A549 cells = settings: cited from earlier work
# [22] = system: Galleria mellonella larvae; test: Galleria toxicity
# B. cenocepacia K56-2 [23] = test: Persister frequency assay; settings: 24 h
# [24] = system: Stenotrophomonas maltophilia DH57; test: MBC (minimum bactericidal concentration)
# Escherichia coli 120955 [25] = test: MBC (minimum bactericidal concentration)
# [26] = system: Escherichia vulneris CEP511; test: MBC (minimum bactericidal concentration)
# [27] = system: Klebsiella pneumoniae 120310; test: MBC (minimum bactericidal concentration)
# [28] = system: Acinetobacter baumannii ATCC 17978; test: MBC (minimum bactericidal concentration)
# [29] = system: Staphylococcus aureus ATCC 27700; test: MBC (minimum bactericidal concentration)
# [30] = system: Staphylococcus aureus 107094; test: MBC (minimum bactericidal concentration)
# [31] = system: Achromobacter xylosoxidans ACH03; test: MBC (minimum bactericidal concentration)
# [32] = system: Burkholderia cenocepacia K56-2; test: Time kill assays (exponential and stationary phase); settings: time kill, 1×, 2×, 6 h
smiles,measurement,setting,value
CC(=O)OC[C@H]1O[C@@H]([S-])[C@H](OC(C)=O)[C@@H](OC(C)=O)[C@@H]1OC(C)=O.CCP(CC)CC.[Au+] [Auranofin],MIC,B. cenocepacia K56-2 [1],>128 µg/mL
same,MIC,B. lata BCC6,128 µg/mL
same,MIC,B. contaminans MF16,128 µg/mL
same,MIC,[2],128 µg/mL
same,MIC,B. dolosa CEP021,>128 µg/mL
same,MIC,B. multivorans ATCC17616,128 µg/mL
same,MIC,B. cenocepacia 140485,128 µg/mL
same,MIC,B. ubonensis LMG 20358,>128 µg/mL
same,MIC,B. contaminans FFH-4004,>128 µg/mL
same,MIC,[3],0.25 µg/mL
same,MIC,[4],0.5 µg/mL
same,MIC,[5],1 µg/mL
same,MIC,B. pseudomallei 1710b,64 µg/mL
same,MIC,B. pseudomallei MSHR465a,64 µg/mL
same,MIC,[6],64 µg/mL
same,MICs against B. mallei,B. mallei,0.25 to 1 µg/mL
same,MIC in B. pseudomallei,B. pseudomallei,64 µg/mL
same,MICs against members of the Bcc,members of the Bcc,≥ 128 µg/mL
same,MICs against Gram-negative bacteria,Gram-negative bacteria,> 16 mg/L
"C[PH](C)(C)[Au][S]CCO [MS-40, 2-mercaptoethanolatotrimethylphosphine gold(I)]",MIC,B. cenocepacia K56-2 [1],4 µg/mL
same,MIC,B. lata BCC6,8 µg/mL
same,MIC,B. contaminans MF16,8 µg/mL
same,MIC,[2],4 µg/mL
same,MIC,B. dolosa CEP021,16 µg/mL
same,MIC,B. multivorans ATCC17616,8 µg/mL
same,MIC,B. cenocepacia 140485,8 µg/mL
same,MIC,B. ubonensis LMG 20358,16 µg/mL
same,MIC,B. contaminans FFH-4004,8 µg/mL
same,MIC,[3],0.12 µg/mL
same,MIC,[4],0.12 µg/mL
same,MIC,[5],0.25 µg/mL
same,MIC,B. pseudomallei 1710b,4 µg/mL
same,MIC,B. pseudomallei MSHR465a,4 µg/mL
same,MIC,[6],4 µg/mL
same,MIC,B. pseudomallei MSHR305,2 µg/mL
same,MIC,[7],1 µg/mL
same,MIC,[8],2 µg/mL
same,MIC,Escherichia coli 120955 [9],4 µg/mL
same,MIC,[10],2 µg/mL
same,MIC,[11],2 µg/mL
same,MIC,[12],2 µg/mL
same,MIC,[13],0.25 µg/mL
same,MIC,[14],0.25 µg/mL
same,MIC,[15],8 µg/mL
same,MBC,[16],8 * μg/mL
same,MBC,[17],2 µg/mL
same,further reduction of ciprofloxacin-generated persister population,[18]; enriched persister population,1–2 log10 CFU/mL
same,killing of ciprofloxacin-generated persister cells,"[18]; in PBS, 3 h, MS-40S/MS-40 2× and 4× MIC, ciprofloxacin 5× MIC",killed to a concentration below/close to the limit of detection
same,in vivo antibiotic activity,B. cenocepacia K56-2 [19],did not observe in vivo antibiotic activity
same,in vivo antibiotic activity,B. cenocepacia K56-2 [20],did not observe in vivo antibiotic activity
same,MIC in the presence of 50% human serum,B. cenocepacia K56-2 [21],128 µg/mL
same,toxicity in human A549 cells compared with auranofin,human A549 cells,lower toxicity
same,Galleria Survival,"[22]; 1.0 mg/kg, 24 h",100%
same,Galleria Survival,"[22]; 1.0 mg/kg, 48 h",96.7%
same,Galleria Survival,"[22]; 1.0 mg/kg, 72 h",96.7%
same,Galleria Survival,"[22]; 2.0 mg/kg, 24 h",90.0%
same,Galleria Survival,"[22]; 2.0 mg/kg, 48 h",80.0%
same,Galleria Survival,"[22]; 2.0 mg/kg, 72 h",80.0%
same,Galleria Survival,"[22]; 5.0 mg/kg, 24 h",96.7%
same,Galleria Survival,"[22]; 5.0 mg/kg, 48 h",93.3%
same,Galleria Survival,"[22]; 5.0 mg/kg, 72 h",90.0%
same,percent survival of Galleria larvae,[22]; 10 mg/kg,≥ 80%
same,Galleria Survival,"[22]; 10.0 mg/kg, 24 h",90.0%
same,Galleria Survival,"[22]; 10.0 mg/kg, 48 h",83.3%
same,Galleria Survival,"[22]; 10.0 mg/kg, 72 h",80.0%
same,persister frequency (percent survival),B. cenocepacia K56-2 [23]; 5× MIC,No persisters
same,persister frequency (percent survival),B. cenocepacia K56-2 [23]; 10× MIC,No persisters
same,MBC,[24],4 µg/mL
same,MBC,Escherichia coli 120955 [25],32 µg/mL
same,MBC,[26],2 µg/mL
same,MBC,[27],4 µg/mL
same,MBC,[28],4 µg/mL
same,MBC,[29],2 µg/mL
same,MBC,[30],1 µg/mL
same,MBC,[31],8 µg/mL
same,killing of stationary (non-replicating) phase cells,[32]; 4× MIC (DOX 4× MIC),bactericidal
same,killing of exponential (replicating) phase cells,[32]; 4× MIC,bactericidal
